Assay results reported in PubChem BioAssay (NCI).
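The concentration for 50% growth inhibition is given as GI50. TGI is the concentration that stops growth completely.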

Columns and labels:
Test in all cases: growth of human tumour cells (NCI), 384-well format
786-0 renal = test system: 786-0 renal
UACC-62 melanoma = test system: UACC-62 melanoma
OVCAR-5 ovarian = test system: OVCAR-5 ovarian
MOLT-4 leukemia = test system: MOLT-4 leukemia
RXF 393 renal = test system: RXF 393 renal
HL-60(TB) leukemia = test system: HL-60(TB) leukemia
UACC-257 melanoma = test system: UACC-257 melanoma
HS 578T breast = test system: HS 578T breast
M14 melanoma = test system: M14 melanoma
NCI-H460 NSCLC = test system: NCI-H460 NSCLC
HT29 colon = test system: HT29 colon
COLO 205 colon = test system: COLO 205 colon
SW-620 colon = test system: SW-620 colon
CCRF-CEM leukemia = test system: CCRF-CEM leukemia
SF-295 CNS = test system: SF-295 CNS
SF-268 CNS = test system: SF-268 CNS
SNB-19 CNS = test system: SNB-19 CNS
TK-10 renal = test system: TK-10 renal
SN12C renal = test system: SN12C renal
HOP-92 NSCLC = test system: HOP-92 NSCLC
NCI/ADR-RES ovarian = test system: NCI/ADR-RES ovarian
T-47D breast = test system: T-47D breast
SF-539 CNS = test system: SF-539 CNS
OVCAR-8 ovarian = test system: OVCAR-8 ovarian
EKVX NSCLC = test system: EKVX NSCLC
K-562 leukemia = test system: K-562 leukemia
ACHN renal = test system: ACHN renal
MDA-MB-435 melanoma = test system: MDA-MB-435 melanoma
OVCAR-4 ovarian = test system: OVCAR-4 ovarian
SNB-75 CNS = test system: SNB-75 CNS
MCF7 breast = test system: MCF7 breast
SK-MEL-5 melanoma = test system: SK-MEL-5 melanoma
BT-549 breast = test system: BT-549 breast
UO-31 renal = test system: UO-31 renal
SR leukemia = test system: SR leukemia
MALME-3M melanoma = test system: MALME-3M melanoma
HOP-62 NSCLC = test system: HOP-62 NSCLC
PC-3 prostate = test system: PC-3 prostate
NCI-H322M lung = test system: NCI-H322M lung
DU-145 prostate = test system: DU-145 prostate
A498 renal = test system: A498 renal
IGROV1 ovarian = test system: IGROV1 ovarian
U251 glioblastoma = test system: U251 glioblastoma
KM12 colon = test system: KM12 colon
OVCAR-3 ovarian = test system: OVCAR-3 ovarian
SK-MEL-28 melanoma = test system: SK-MEL-28 melanoma
SK-OV-3 ovarian = test system: SK-OV-3 ovarian
LOX IMVI melanoma = test system: LOX IMVI melanoma
NCI-H23 lung = test system: NCI-H23 lung
MDA-MB-231 breast = test system: MDA-MB-231 breast
A549 NSCLC = test system: A549 NSCLC
RPMI-8226 leukemia = test system: RPMI-8226 leukemia
CAKI-1 renal = test system: CAKI-1 renal
HCC-2998 colon = test system: HCC-2998 colon
HCT-15 colon = test system: HCT-15 colon
NCI-H226 lung = test system: NCI-H226 lung
MDA-MB-468 breast = test system: MDA-MB-468 breast
NCI-H522 lung = test system: NCI-H522 lung

In the case of `O=C(O)CCC1CCC(c2cc(F)ccc2F)(S(=O)(=O)c2ccc(Cl)cc2)CC1` (stereo unspecified), the GI50 ([…]-0 renal) is reported as > 100 µM, the TGI (786-0 renal) is reported as > 100 µM and the GI50 (UACC-62 melanoma) is reported as > 100 µM. For the same compound, the TGI (UACC-62 melanoma) was > 100 µM, the GI50 (OVCAR-5 ovarian) was > 100 µM and the TGI (OVCAR-5 ovarian) was > 100 µM. For the same compound, the GI50 (MOLT-4 leukemia) was 65 µM, the TGI (MOLT-4 leukemia) was > 100 µM and the GI50 (RXF 393 renal) was > 100 µM. The TGI (RXF 393 renal) was > 100 µM, the GI50 (HL-60(TB) leukemia) was > 100 µM and the TGI (HL-60(TB) leukemia) was > 100 µM. The GI50 (UACC-257 melanoma) was > 100 µM, the TGI (UACC-257 melanoma) was > 100 µM and the GI50 (HS 578T breast) was > 100 µM. For the same compound, the TGI (HS 578T breast) was > 100 µM, the GI50 (M14 melanoma) was > 100 µM and the TGI (M14 melanoma) was > 100 µM. The GI50 (NCI-H460 NSCLC) was > 100 µM, the TGI (NCI-H460 NSCLC) was > 100 µM and the GI50 (HT29 colon) was > 100 µM. For the same compound, the TGI (HT29 colon) was > 100 µM, the GI50 (COLO 205 colon) was > 100 µM and the TGI (COLO 205 colon) was > 100 µM. For the same compound, the GI50 (SW-620 colon) was > 100 µM, the TGI (SW-620 colon) was > 100 µM and the GI50 (CCRF-CEM leukemia) was 75.8 µM. For the same compound, the TGI (CCRF-CEM leukemia) was > 100 µM, the GI50 (SF-295 CNS) was > 100 µM and the TGI (SF-295 CNS) was > 100 µM. The GI50 (SF-268 CNS) was > 100 µM, the TGI (SF-268 CNS) was > 100 µM and the GI50 (SNB-19 CNS) was > 100 µM. For the same compound, the TGI (SNB-19 CNS) was > 100 µM, the GI50 (TK-10 renal) was > 100 µM and the TGI (TK-10 renal) was > 100 µM. For the same compound, the GI50 (SN12C renal) was > 100 µM, the TGI (SN12C renal) was > 100 µM and the GI50 (HOP-92 NSCLC) was > 100 µM. For the same compound, the TGI (HOP-92 NSCLC) was > 100 µM, the GI50 (NCI/ADR-RES ovarian) was > 100 µM and the TGI (NCI/ADR-RES ovarian) was > 100 µM. For the same compound, the GI50 (T-47D breast) was 99.6 µM, the TGI (T-47D breast) was > 100 µM and the GI50 (SF-539 CNS) was > 100 µM. The TGI (SF-539 CNS) was > 100 µM, the GI50 (OVCAR-8 ovarian) was > 100 µM and the TGI (OVCAR-8 ovarian) was > 100 µM. The GI50 (EKVX NSCLC) was > 100 µM, the TGI (EKVX NSCLC) was > 100 µM and the GI50 (K-562 leukemia) was > 100 µM. For the same compound, the TGI (K-562 leukemia) was > 100 µM, the GI50 (ACHN renal) was > 100 µM and the TGI (ACHN renal) was > 100 µM. For the same compound, the GI50 (MDA-MB-435 melanoma) was 71.9 µM, the TGI (MDA-MB-435 melanoma) was > 100 µM and the GI50 (OVCAR-4 ovarian) was 78.8 µM. The TGI (OVCAR-4 ovarian) was > 100 µM, the GI50 (SNB-75 CNS) was > 100 µM and the TGI (SNB-75 CNS) was > 100 µM. For the same compound, the GI50 (MCF7 breast) was > 100 µM, the TGI (MCF7 breast) was > 100 µM and the GI50 (SK-MEL-5 melanoma) was > 100 µM. The TGI (SK-MEL-5 melanoma) was > 100 µM, the GI50 (BT-549 breast) was > 100 µM and the TGI (BT-549 breast) was > 100 µM. The GI50 (UO-31 renal) was > 100 µM, the TGI (UO-31 renal) was > 100 µM and the GI50 (SR leukemia) was 24.8 µM. For the same compound, the TGI (SR leukemia) was > 100 µM, the GI50 (MALME-3M melanoma) was 62 µM and the TGI (MALME-3M melanoma) was > 100 µM. For the same compound, the GI50 (HOP-62 NSCLC) was > 100 µM, the TGI (HOP-62 NSCLC) was > 100 µM and the GI50 (PC-3 prostate) was > 100 µM. For the same compound, the TGI (PC-3 prostate) was > 100 µM, the GI50 (NCI-H322M lung) was > 100 µM and the TGI (NCI-H322M lung) was > 100 µM. For the same compound, the GI50 (DU-145 prostate) was > 100 µM, the TGI (DU-145 prostate) was > 100 µM and the GI50 (A498 renal) was > 100 µM. The TGI (A498 renal) was > 100 µM, the GI50 (IGROV1 ovarian) was > 100 µM and the TGI (IGROV1 ovarian) was > 100 µM. The GI50 (U251 glioblastoma) was > 100 µM, the TGI (U251 glioblastoma) was > 100 µM and the GI50 (KM12 colon) was > 100 µM. The TGI (KM12 colon) was > 100 µM, the GI50 (OVCAR-3 ovarian) was > 100 µM and the TGI (OVCAR-3 ovarian) was > 100 µM. The GI50 (SK-MEL-28 melanoma) was > 100 µM, the TGI (SK-MEL-28 melanoma) was > 100 µM and the GI50 (SK-OV-3 ovarian) was > 100 µM. The TGI (SK-OV-3 ovarian) was > 100 µM, the GI50 (LOX IMVI melanoma) was > 100 µM and the TGI (LOX IMVI melanoma) was > 100 µM. For the same compound, the GI50 (NCI-H23 lung) was > 100 µM, the TGI (NCI-H23 lung) was > 100 µM and the GI50 (MDA-MB-231 breast) was > 100 µM. The TGI (MDA-MB-231 breast) was > 100 µM, the GI50 (A549 NSCLC) was > 100 µM and the TGI (A549 NSCLC) was > 100 µM. The GI50 (RPMI-8226 leukemia) was > 100 µM, the TGI (RPMI-8226 leukemia) was > 100 µM and the GI50 (CAKI-1 renal) was > 100 µM. For the same compound, the TGI (CAKI-1 renal) was > 100 µM, the GI50 (HCC-2998 colon) was > 100 µM and the TGI (HCC-2998 colon) was > 100 µM. The GI50 (HCT-15 colon) was > 100 µM, the TGI (HCT-15 colon) was > 100 µM and the GI50 (NCI-H226 lung) was > 100 µM. For the same compound, the TGI (NCI-H226 lung) was > 100 µM, the GI50 (MDA-MB-468 breast) was 8.1 µM and the TGI (MDA-MB-468 breast) was 80.4 µM. The GI50 (NCI-H522 lung) was > 100 µM and the TGI (NCI-H522 lung) was > 100 µM.
